# Measurements: ChEMBL document CHEMBL5104203
# Target: Trehalose-binding lipoprotein LpqY (Mycobacterium tuberculosis) (UniProt P9WGU9)
# Test: Binding affinity to RED-NHS labelled Mycobacterium tuberculosis LpqY expressed in Escherichia coli BL21 (DE3) assessed as dissociation constant incubated for 10 mins by Microscale thermophoresis analysis
# Settings: DDE = dose-dependent effect
# Trehalose-binding lipoprotein LpqY (Mycobacterium tuberculosis), sequence (P9WGU9 whole entry): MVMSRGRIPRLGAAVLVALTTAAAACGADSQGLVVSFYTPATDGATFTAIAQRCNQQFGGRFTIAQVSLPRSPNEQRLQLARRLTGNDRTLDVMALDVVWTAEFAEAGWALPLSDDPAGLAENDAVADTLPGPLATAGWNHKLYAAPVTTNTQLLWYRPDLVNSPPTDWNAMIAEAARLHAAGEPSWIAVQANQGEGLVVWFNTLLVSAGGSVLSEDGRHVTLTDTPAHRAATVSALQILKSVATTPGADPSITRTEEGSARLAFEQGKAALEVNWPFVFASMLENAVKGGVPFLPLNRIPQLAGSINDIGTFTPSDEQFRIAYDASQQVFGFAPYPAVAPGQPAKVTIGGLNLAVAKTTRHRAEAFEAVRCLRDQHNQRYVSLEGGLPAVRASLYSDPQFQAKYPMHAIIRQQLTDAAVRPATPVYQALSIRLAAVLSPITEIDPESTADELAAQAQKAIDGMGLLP
row,SMILES,Activity
1,COc1cc(NC(C)CCCN)c2ncccc2c1 (stereo not drawn),Dde
2,CNC(=O)c1nn(C)c2c1C(C)(C)Cc1cnc(Nc3ccc(N4CCN(C)CC4)cc3)nc1-2,Dde
3,Nc1cccnc1Nc1ccc(Cl)cc1,Dde
